This is an account of results in US20240199546A1, “INHIBITORS OF SOLUTE CARRIER FAMILY 6A MEMBER 19 (SLC6A19) AND METHODS OF USE THEREOF” (Maze Therapeutics, Inc., priority 2022, published 2024).

A value given as a limit tells only on which side of the number the result lay.

The experiment concerns the target T1, human SLC6A19 and TMEM27 (Homo sapiens, UniProt Q695T7).
T1 construct: expressed in transfected cells
T1 sequence (Q695T7 1-634): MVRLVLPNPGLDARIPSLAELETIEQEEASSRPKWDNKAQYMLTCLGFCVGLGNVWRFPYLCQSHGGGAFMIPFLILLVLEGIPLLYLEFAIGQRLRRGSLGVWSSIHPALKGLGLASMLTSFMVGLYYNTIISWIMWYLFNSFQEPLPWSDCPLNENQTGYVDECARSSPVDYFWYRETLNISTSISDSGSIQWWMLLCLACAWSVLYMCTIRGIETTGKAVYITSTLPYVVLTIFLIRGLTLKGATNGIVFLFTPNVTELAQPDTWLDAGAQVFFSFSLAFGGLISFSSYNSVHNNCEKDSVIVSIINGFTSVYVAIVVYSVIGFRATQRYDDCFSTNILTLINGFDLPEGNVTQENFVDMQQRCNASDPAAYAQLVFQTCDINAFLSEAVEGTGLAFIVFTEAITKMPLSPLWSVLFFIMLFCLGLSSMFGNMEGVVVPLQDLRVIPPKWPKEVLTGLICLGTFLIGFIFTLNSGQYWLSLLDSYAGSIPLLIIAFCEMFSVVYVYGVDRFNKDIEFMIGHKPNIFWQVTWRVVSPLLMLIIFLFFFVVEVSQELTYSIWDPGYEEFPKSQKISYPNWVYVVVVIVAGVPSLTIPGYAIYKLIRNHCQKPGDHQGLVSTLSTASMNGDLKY
T1 sequence (Q9HBJ8 15-222 partner): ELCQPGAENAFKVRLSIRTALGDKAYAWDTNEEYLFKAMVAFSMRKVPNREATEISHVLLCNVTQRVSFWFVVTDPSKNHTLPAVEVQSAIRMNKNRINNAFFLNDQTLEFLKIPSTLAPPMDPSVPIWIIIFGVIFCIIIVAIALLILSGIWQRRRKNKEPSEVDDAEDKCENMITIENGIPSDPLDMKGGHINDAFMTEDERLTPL
Description: 13C6,15N-isoleucine uptake in CHO cells with doxycycline-inducible expression of human SLC6A19 and TMEM27, RapidFire mass spectrometry (Example B-2). Type of experiment: cell-based. As to conditions: read-out: SLC6A19_RapidFire Uptake Assay IC50. Here is the method: Assay ready vials of CHO cells with doxycycline inducible expression of human SLC6A19 and TMEM27 were thawed, plated in T175 flasks containing DMEM/F12 media, 10% FBS, 1% Penicillin-Streptomycin, 1× UltraGlutamate, 1 mM Sodium Pyruvate, Sodium Bicarbonate (7.5 mL of 7.5% solution in 500 mL media final), 5 μg/mL Blasticidin, 150 μg/mL Hygromycin B Gold, and 500 μg/mL G418, and incubated (humidified, 37° C. with 5% CO2) for 48 hours. Media was then removed, flasks were washed with 20 mL of DPBS, and 5 mL of TrypLE™ Express was added to each flask to initiate cell dissociation. After 5 minutes, 10 mL of cell culture media was added to each flask and mixed. The cell suspension was collected and centrifuged for 5 minutes at 200×g. The supernatant was removed, and the pellet was resuspended in 10 mL of cell culture media. Resuspended cells were counted using a Vi-Cell. 30 μL/well (20,000 cells/well) of cell suspension was added to Poly-D-Lysine 384-well black/clear plates. Plates were incubated (humidified, 37° C. with 5% CO2) for 24 hours. To induce expression of human SLC6A19 and TMEM27, 10 μL of assay culture media containing 4 μg/mL doxycycline was added to each well. Assay plates were then incubated (humidified, 37° C. with 5% CO2) overnight. After incubation, the media was removed, and wells were washed 3 times with 40 μL of warmed DPBS. Next, 10 μL of warmed assay buffer (137 mM NaCl, 5 mM KCl, 1 mM CaCl2), 1 mM MgCl2, 10 mM HEPES, 10 mM glucose, pH 7.2) was added to each well. 10 μL/well of test compound or positive control compound to define 0% activity (i.e., 100% inhibition), was then added into each well. All compounds were plated in a duplicate 10-point dilution series that consisted of 2-fold dilutions. The plates were incubated (humidified, 37° C. with 5% C2) with compound for 20 minutes. Afterwards, 20 μL/well of 2 mM 13C6,15N-1-isoleucine was added to each well and plates were incubated again (humidified, 37° C. with 5% C02) for another 20 minutes. Assay buffer was then removed, and plates were washed. 70 μL/well of stop solution (75% acetonitrile, 25% HPLC grade water, 250 nM 1-leucine-1-13C (RapidFire standard)) was added to each well. The plates were sealed and then placed in a −20° C. freezer for 20 minutes. The plates were thawed at room temperature for 20 minutes and then centrifuge for 20 minutes at 3000 rpm. Using an ABSciex API4000 mass spectrometer, processed samples were loaded onto the graphitic carbon SPE-column. The time for aspiration, load/wash, elution and re-equilibration time was 600, 1500, 3000 and 500 milliseconds, respectively. Peak areas were calculated using RapidFire Integrator software.
Broadly, the IC50 is the point on the concentration scale where inhibition reaches its midpoint. As for `Cc1nc(COc2ccc3cc(CNC(=O)C4(C)CC4)[nH]c3c2)co1` [Compound 180, 1-methyl-N-((6-((2-methyloxazol-4-yl)methoxy)-1H-indol-2-yl)methyl)cyclopropane-1-carboxamide], the half-inhibitory concentration (IC50) was found to be 563 nM.
Consider `CC1(C(=O)NCc2cc3cc(F)c(OCc4cncs4)cc3[nH]2)CC1` [Compound 9, N-((5-fluoro-6-(thiazol-5-ylmethoxy)-1H-indol-2-yl)methyl)-1-methylcyclopropane-1-carboxamide], for which the IC50 is 271 nM.
On to `Cc1cc(COc2ccc3cc(CNC(=O)C4(C)CC4)[nH]c3c2)on1` [Compound 181, 1-methyl-N-((6-((3-methylisoxazol-5-yl)methoxy)-1H-indol-2-yl)methyl)cyclopropane-1-carboxamide], for which the IC50 was found to be 183 nM.
`Cc1cc(CCc2ccc3cc(CNC(=O)C4(C)CC4)[nH]c3c2)no1` [Compound 77, 1-methyl-N-((6-(2-(5-methylisoxazol-3-yl)ethyl)-1H-indol-2-yl)methyl)cyclopropane-1-carboxamide]: the IC50 stood at 355 nM.
For the compound `Cc1cc(Cc2ccc3cc(CNC(=O)C4(C)CC4)[nH]c3c2)no1` [Compound 160, 1-methyl-N-((6-((5-methylisoxazol-3-yl)methyl)-1H-indol-2-yl)methyl)cyclopropanecarboxamide], the IC50 was more than 50000 nM.
`Cc1nc(COc2ccc3cc(CNC(=O)C4(C)CC4)[nH]c3c2)cs1` [Compound 179, 1-methyl-N-((6-((2-methylthiazol-4-yl)methoxy)-1H-indol-2-yl)methyl)cyclopropane-1-carboxamide]: the IC50 was 1420 nM.
On to `CC1(C(=O)NCc2cc3ccc(NCc4ccccn4)cc3[nH]2)CC1` [Compound 4, 1-methyl-N-((6-((pyridin-2-ylmethyl)amino)-1H-indol-2-yl)methyl)cyclopropane-1-carboxamide], for which the IC50 came out at 1830 nM.
Turning to `CC1(C(=O)NCc2cc3cc(Cl)c(OCc4cocn4)cc3[nH]2)CC1` [Compound 161, N-((5-chloro-6-(oxazol-4-ylmethoxy)-1H-indol-2-yl)methyl)-1-methylcyclopropane-1-carboxamide], the IC50 was 68 nM.
For the compound `CC1(C(=O)NCc2cc3ccc(CCc4ccon4)cc3[nH]2)CC1` [Compound 75, N-((6-(2-(isoxazol-3-yl)ethyl)-1H-indol-2-yl)methyl)-1-methylcyclopropanecarboxamide], the IC50 was determined as 464 nM.
The figure for `CC1(C(=O)NCc2cc3ccc(OCc4ccno4)cc3[nH]2)CC1` [Compound 62, N-((6-(isoxazol-5-ylmethoxy)-1H-indol-2-yl)methyl)-1-methylcyclopropanecarboxamide] is 493 nM.
Regarding `CC1(C(=O)NCc2cc3cc(F)c(OCc4cnco4)cc3[nH]2)CC1` [Compound 57, N-((5-fluoro-6-(oxazol-5-ylmethoxy)-1H-indol-2-yl)methyl)-1-methylcyclopropane-1-carboxamide], the IC50 was found to be 577 nM.
On to `CC1(C(=O)NCc2cc3ccc(NCc4ccccc4)cc3[nH]2)CC1` [Compound 3, N-((6-(benzylamino)-1H-indol-2-yl)methyl)-1-methylcyclopropanecarboxamide], for which the IC50 was 504 nM.
With `Cn1ncc(COc2ccc3cc(CNC(=O)C4(C)CC4)[nH]c3c2)n1` [Compound 173, 1-methyl-N-((6-((2-methyl-2H-1,2,3-triazol-4-yl)methoxy)-1H-indol-2-yl)methyl)cyclopropane-1-carboxamide] the figure was 926 nM; with `CC1(C(=O)NCc2cc3ccc(OCc4ccsn4)cc3[nH]2)CC1` [Compound 94, N-((6-(isothiazol-3-ylmethoxy)-1H-indol-2-yl)methyl)-1-methylcyclopropanecarboxamide], 43.4 nM.
Turning to `CC1(C(=O)NCc2cc3ccc(OCc4cncnc4)cc3[nH]2)CC1` [Compound 52, 1-methyl-N-((6-(pyrimidin-5-ylmethoxy)-1H-indol-2-yl)methyl)cyclopropane-1-carboxamide], the IC50 turned out to be 2110 nM.
As for `Cn1cc(COc2ccc3cc(CNC(=O)C4(C)CC4)[nH]c3c2)nn1` [Compound 168, 1-methyl-N-((6-((1-methyl-1H-1,2,3-triazol-4-yl)methoxy)-1H-indol-2-yl)methyl)cyclopropane-1-carboxamide], the IC50 is 7440 nM.
For the compound `Cc1nc(COc2cc3[nH]c(CNC(=O)C4(C)CC4)cc3cc2Cl)co1` [Compound 182, N-((5-chloro-6-((2-methyloxazol-4-yl)methoxy)-1H-indol-2-yl)methyl)-1-methylcyclopropane-1-carboxamide], the IC50 turned out to be 91 nM.
Regarding `CC1(C(=O)NCc2cc3cc(Cl)c(OCc4cnsn4)cc3[nH]2)CC1` [Compound 183, N-((6-((1,2,5-thiadiazol-3-yl)methoxy)-5-chloro-1H-indol-2-yl)methyl)-1-methylcyclopropane-1-carboxamide], the 50% inhibitory concentration (IC50) worked out at 39 nM.
Consider `CC1(C(=O)NCc2cc3ccc(OCc4cscn4)cc3[nH]2)CC1` [Compound 164, 1-methyl-N-((6-(thiazol-4-ylmethoxy)-1H-indol-2-yl)methyl)cyclopropane-1-carboxamide], for which the IC50 was 98 nM.
The figure for `Cc1ncc(COc2cc3[nH]c(CNC(=O)C4(C)CC4)cc3cc2Cl)s1` [Compound 176, N-((5-chloro-6-((2-methylthiazol-5-yl)methoxy)-1H-indol-2-yl)methyl)-1-methylcyclopropane-1-carboxamide] is 528 nM.
Consider `CNC(=O)NCc1cc2cc(Cl)c(OCc3cncs3)cc2[nH]1` [Compound 109, 1-((5-chloro-6-(thiazol-5-ylmethoxy)-1H-indol-2-yl)methyl)-3-methylurea], for which the 50% inhibitory concentration (IC50) came to 515 nM.
The figure for `CNC(=O)NCc1cc2ccc(OCc3cocn3)cc2[nH]1` [Compound 108, 1-methyl-3-((6-(oxazol-4-ylmethoxy)-1H-indol-2-yl)methyl)urea] is 5570 nM; for `CC1(C(=O)NCc2cc3cc(F)c(OCc4cocn4)cc3[nH]2)CC1` [Compound 7, N-((5-fluoro-6-(oxazol-4-ylmethoxy)-1H-indol-2-yl)methyl)-1-methylcyclopropane-1-carboxamide] it is 225 nM; for `CC1(C(=O)NCc2cc3ccc(OCc4cocn4)cc3[nH]2)CC1` [Compound 49, 1-methyl-N-((6-(oxazol-4-ylmethoxy)-1H-indol-2-yl)methyl)cyclopropane-1-carboxamide] it is 412 nM.
As to `Cc1cc(COc2ccc3cc(CNC(=O)C4(C)CC4)[nH]c3c2)no1` [Compound 50, 1-methyl-N-((6-((5-methylisoxazol-3-yl)methoxy)-1H-indol-2-yl)methyl)cyclopropane-1-carboxamide], the IC50 came to 193 nM.
Take `CC1(C(=O)NCc2cc3cc(Cl)c(Cc4ccon4)cc3[nH]2)CC1` [Compound 159, N-((5-chloro-6-(isoxazol-3-ylmethyl)-1H-indol-2-yl)methyl)-1-methylcyclopropanecarboxamide]: the IC50 is 493 nM.
